Measured values reported in patent US10934346B2, “Modified T cell comprising a polynucleotide encoding an inducible stimulating molecule comprising MyD88, CD40 and FKBP12” (priority 2014, dated 2021).

What was measured:
[1] = system: IC-21 macrophages; assay: IL-6 ELISA of adenovirus-transduced IC-21 macrophages with AP1903; assay type: cell-based
Excerpt: Inducible chimeric polypeptides of the present application were expressed in various cell types along with a tumor antigen. […] Cell lines included keratinocytes, melanocytes (for example, B16-F10 melanoma), macrophages (for example, IC-21), and fibroblasts (for example, BLK-CL4). FIG. 22 provides a schematic overview of the process by which expression of the chimeric polypeptide, after contacting AP1903, can induce the expression of inflammatory cytokines and chemokines in the transduced cell. FIG. 23 provides a schematic of an assay used to measure PSMA expression and cytokine secretion in transduced cells. The cells were transduced with one of four adenovirus Ad5 vectors: Ad5-iMC-RP-FL; Ad5-iMC-P2A-P-FL; Ad5f35iMC-RP-FL; or Ad5f35iMC-P2A-FL. […] IC-21 macrophages were cultured at 100,000 cells/ml/well in 24-well plates. […] A. Cells were labeled with anti-human PSMA antibody, LNI-17, (Biolegend, San Diego, Calif.) and PSMA expression was analyzed by flow cytometry. […] B. IL-6 was evaluated from the culture supernatants by ELISA (e-Bioscience, San Diego, Calif.). […] A. Cells were labeled with anti-human PSMA antibody, LNI-17, (Biolegend, San Diego, Calif.) and PSMA expression was analyzed by flow cytometry. […] B. IL-6 was evaluated from the culture supernatants by ELISA (e-Bioscience, San Diego, Calif.). […] IL-6 was evaluated from the culture supernatants by ELISA (e-Bioscience, San Diego, Calif.).

[2] = system: Capan-1 tumor; assay: Capan-1 tumor xenograft in NSG mice with T cell bioluminescence imaging; assay type: in vivo
Method: FIG. 3A) Shorn mice were engrafted with Capan-1 tumor cells and treated with PSCA.ζ CAR T cells cotransduced with control vector or iMC, or non-transduced T cells, and injected i.v. on days 7 and 14. Exogenous IL-2 was given i.p. until day 21 and then withdrawn. All mice received 5 mg/kg rimiducid i.p. twice per week (biw). Tumor size was measured by calipers (FIG. 3B) and survival assessed over a 100-day period (FIG. 3C). FIG. 3D) to measure in vivo CAR T cell persistence and expansion, NSG mice were used. Mice were injected s.c. with Capan-1 tumor cells and then treated with non-transduced (NT) or FKBP and PSCA.ζ-modified T cells or iMC and PSCA.ζ-modified T cells. Mice treated with iMC-enabled T cells received 2.5 mg/kg rimiducid once (qw), twice weekly (biw) or saline only via i.p. injection. FIG. 3E) Subcutaneous tumor size was measured by calipers over a 30 day period.
FIG. 3F) In vivo bioluminescence imaging was performed on mice treated with iMC-transduced T cells receiving saline only, or with systemic rimiducid administration. […]
In vivo studies. […] Tumors were measured by calipers and tumor size calculated. […] Photon emission was analyzed by constant region-of-interest (ROI) drawn over the tumor region and the signal measured as total counts as previously validated^10. As above, efficacy was assessed by measuring tumors using calipers. […]

[3] = system: iMC-modified T cells; assay: Titration of rimiducid on iMC-transduced T cells (T cell activation); assay type: cell-based, human
Excerpt: Cytokine and chemokine production. […] CAR and iMC signaling.

Compound: CC[C@H](C(=O)N1CCCC[C@H]1C(=O)O[C@H](CCc1ccc(OC)c(OC)c1)c1cccc(OCC(=O)NCCNC(=O)COc2cccc([C@@H](CCc3ccc(OC)c(OC)c3)OC(=O)[C@@H]3CCCCN3C(=O)[C@@H](CC)c3cc(OC)c(OC)c(OC)c3)c2)c1)c1cc(OC)c(OC)c(OC)c1 (relative stereo) [rimiducid, 2-Piperidinecarboxylic acid, 1-[(2S)-1-oxo-2-(3,4,5-trimethoxyphenyl)butyl]-, 1,2-ethanediylbis [imino(2-oxo-2,1-ethanediyl)oxy-3,1-phenylene[(1R)-3-(3,4-Dimethoxyphenyl)propylidene]] ester, [2S-[1(R*),2R*[S*[S*[1(R*),2R*]]]]]-(9Cl)]
- IL-6 production ([1]; 100 nM AP1903): response to AP1903 by producing IL-6
- activation of IL-6, dependence on AP1903 ([1]; macrophages): occurred in the presence or absence of AP1903
- tumor control ([2]; rimiducid 2.5 mg/kg once or twice weekly, iMC and PSCA.ζ T cells): enabled enhanced tumor control
- T cell bioluminescence (BLI) ([2]; systemically and at the subcutaneous tumor site): dramatic increase in T cell BLI
- EC50 ([3]; Homo sapiens, T-cell, FIG. 1b, read-out: EC50, activation of T cells through the iMC switch): ~0.12 nM
- activation of iMC-transduced T cells ([3]; […]): dose-dependent activation
